From US20220356147A1, “COMPOUNDS AND METHODS FOR POTENTIATING COLISTIN ACTIVITY” (University of Notre Dame du Lac, priority 2019, published 2022)
Read-outs that look alike come from different tables or passages of the source.

What was measured:
AB 4106 = experiment: Broth microdilution, standalone MIC of compound; type: cell-based, A. baumannii; conditions: Acinetobacter baumannii, 16 h, read-out: MIC of compound alone, AB 4106
Description: Broth microdilution method for the determination of minimum inhibitory concentrations: Bacteria were cultured for 4 to 6 hours in CAMHB and subcultured to 1.04×10^6 CFU/mL for AB 4106 and 1.96×10^6 CFU/mL for KP B9 in fresh CAMHB. To aliquots (1 mL) was added compound from stock solutions in DMSO, such that the compound concentration equaled the highest concentration tested. Samples were then dispensed (200 μL) into the first row of a 96-well microtiter plate in which all but the final row of subsequent wells were prefilled with 100 μL of the untreated bacterial subculture. The final row was filled with media to act as a sterility control and blank. Row one wells were mixed 6-7 times, then, 100 μL was withdrawn and transferred to row two. Row two wells were mixed 6-7 times followed by a 100 μL transfer from row two to row three. This procedure was used to serially dilute the rest of the rows of the microtiter plate, excluding the last prefilled row, which was used to measure growth in the absence of compound. Plates were then sealed with GLAD Press'n Seal and incubated under stationary conditions at 37 C. […] MIC values were determined as the minimum concentration required to achieve 90% growth inhibition compared to growth in untreated wells.

[1] = system: A. baumannii 4106 (AB4106); experiment: Broth microdilution, colistin potentiation; type: cell-based
Description: (§1) Broth microdilution method for measurement of colistin potentiation: Bacteria were cultured for 4 to 6 hours in CAMHB and diluted to 1.04×10^6 CFU/mL for AB 4106 and 1.96×10^6 CFU/mL for KP B9 in fresh CAMHB. To aliquots (4 mL) was added compound from stock solutions in DMSO. One aliquot was not dosed to allow measurement of the colistin MIC in the absence of compound. A 1 mL aliquot of each sample was dosed with colistin, and from this 200 μL was dispensed into the first row of a 96-well microtiter plate in which all but the final row of subsequent wells was prefilled with 100 μL of the corresponding compound dosed bacterial suspension The final row was filled with media to act as a sterility control and blank. Row one wells were mixed 6-7 times, then, 100 μL was withdrawn and transferred to row two. Row two wells were mixed 6-7 times followed by a 100 μL transfer from row two to row three. This procedure was used to serially dilute the rest of the rows of the microtiter plate, excluding the last prefilled row, which was used to measure growth in the presence of compound alone. Plates were then sealed with GLAD
(§2) Press'n Seal and incubated under stationary conditions at 37° C. […] MIC values were determined as the minimum concentration required to achieve 90% growth inhibition compared to growth in untreated wells.

AB4106 and KPB9 = experiment: Initial screen for colistin resistance suppression, statements in words for both strains; type: cell-based, A. baumannii and K. pneumoniae; conditions: compound at 5 μM
Description: as §1, §2

[2] = compound at 5 μM, colistin alone 2048 μg/mL

Compound | MIC (AB 4106; standalone, no colistin) [µM] | Colistin MIC fold reduction, AB 4106 [1, 2] [fold] | Colistin MIC fold reduction, AB 4106 ([1]; compound at 1 μM) [fold] | Colistin MIC fold reduction, AB 4106 ([1]; compound at 3 μM) [fold] | Colistin potentiation activity in words, compared to IMD-0354 (AB4106 and KPB9) | Colistin potentiation activity in words, AB4106 ([1]; compound at 5 μM) | MIC (AB 4106) [µM]
O=C(Nc1cc(F)cc(F)c1)c1cc(F)ccc1O [Compound 42] | 200 | 256 | – | – | – | – | –
O=C(Nc1cc(Cl)cc(Cl)c1)c1cc(Cl)cc(Cl)c1O [Compound 62] | 100 | 512 | 32 | 256 | – | – | –
O=C(Nc1cc(C(F)(F)F)cc(C(F)(F)F)c1)c1cc(F)ccc1O [Compound 8] | > 200 | 1024 | 64 | 1024 | essentially equipotent activity to IMD-0354 | – | –
O=C(Nc1cc(Cl)cc(Cl)c1)c1cc(Br)ccc1O [Compound 46] | > 200 | 512 | 32 | 256 | – | – | –
O=C(Nc1cc(C(F)(F)F)cc(C(F)(F)F)c1)c1cccc(O)c1 [Compound 7, N-(3,5-bis(trifluoromethyl)phenyl)-3-hydroxybenzamide] | > 200 | – | – | – | devoid of activity | – | –
O=C(Nc1cc(C(F)(F)F)cc(C(F)(F)F)c1)c1ccc(C(F)(F)F)cc1O [Compound 15] | > 200 | 2048 | 128 | 512 | equipotent activity to IMD-0354 | – | –
Cc1cc(C)cc(NC(=O)c2cc(Cl)cc(Cl)c2O)c1 [Compound 59, 3,5-dichloro-N-(3,5-dimethylphenyl)-2-hydroxybenzamide] | > 200 | ≤ 16 | – | – | – | – | –
O=C(Nc1ccc(C(F)(F)F)cc1C(F)(F)F)c1cc(Cl)ccc1O [Compound 18] | > 200 | 1024 | 256 | 1024 | retained activity against KPB9 and AB4106 equivalent to IMD-0354 | – | –
O=C(Nc1cccc(Cl)c1)c1cc(Cl)ccc1O [Compound 40] | > 200 | 1024 | ≤ 16 | 256 | – | – | –
Cc1cc(C)cc(NC(=O)c2cccc(Cl)c2O)c1 [Compound 58, 3-chloro-N-(3,5-dimethylphenyl)-2-hydroxybenzamide] | > 200 | ≤ 16 | – | – | – | – | –
O=C(Nc1cc(F)cc(F)c1)c1cc(Br)ccc1O [Compound 45] | > 200 | 1024 | 256 | 512 | – | – | –
O=C(Nc1cc(Br)cc(Br)c1)c1cc(Br)ccc1O [Compound 47] | > 200 | 1024 | 256 | 1024 | – | – | –
O=C(Nc1cc(Cl)c(Br)c(Cl)c1)c1cc(Cl)ccc1O [Compound 41, N-(4-bromo-3,5-dichlorophenyl)-5-chloro-2-hydroxybenzamide] | > 200 | 128 | – | – | – | – | –
O=C(Nc1cc(Cl)cc(Cl)c1)c1ccc(C(F)(F)F)cc1O [Compound 55, N-(3,5-dichlorophenyl)-2-hydroxy-4-(trifluoromethyl)benzamide] | > 200 | 2048 | 256 | 1024 | – | – | –
O=C(Nc1cc(C(F)(F)F)ccc1C(F)(F)F)c1cc(Br)ccc1O [Compound 49] | 200 | 2048 | 256 | 1024 | – | – | –
Cc1cc(C)cc(NC(=O)c2cc(Br)ccc2O)c1 [Compound 48] | > 200 | 128 | – | – | – | – | –
O=C(Nc1cc(Br)cc(Br)c1)c1cc(Cl)cc(Cl)c1O [Compound 60, 3,5-dichloro-N-(3,5-dibromophenyl)-2-hydroxybenzamide] | 50 | 2048 | 128 | 512 | – | – | –

Compound | MIC (AB 4106; standalone, no colistin) [µM] | Colistin MIC fold reduction, AB 4106 [1, 2] [fold] | Colistin MIC fold reduction, AB 4106 ([1]; compound at 1 μM) [fold] | Colistin MIC fold reduction, AB 4106 ([1]; compound at 3 μM) [fold] | Colistin potentiation activity in words, compared to IMD-0354 (AB4106 and KPB9) | Colistin potentiation activity in words, AB4106 ([1]; compound at 5 μM) | MIC (AB 4106) [µM]
O=C(Nc1cc(F)cc(F)c1)c1ccc(C(F)(F)F)cc1O [Compound 54, N-(3,5-difluorophenyl)-2-hydroxy-4-(trifluoromethyl)benzamide] | 200 | 1024 | 64 | 512 | – | – | –
O=C(Nc1cc(Cl)cc(Cl)c1)c1cc(F)ccc1O [Compound 43] | > 200 | 1024 | 128 | 512 | – | – | –
O=C(Nc1ccc(F)c([N+](=O)[O-])c1)c1cc(Cl)ccc1O [Compound 35, 5-chloro-N-(4-fluoro-3-nitrophenyl)-2-hydroxybenzamide] | > 200 | 32 | – | – | – | Neither compound displayed significant activity | –
Cc1ccc(NC(=O)c2cc(Cl)ccc2O)cc1C(F)(F)F [Compound 30] | > 200 | 32 | – | – | – | – | –
Cc1cc(C)cc(NC(=O)c2cc(I)ccc2O)c1 [Compound 53] | > 200 | 256 | – | – | – | – | –
O=C(Nc1c(F)cccc1Br)c1cc(Cl)ccc1O [Compound 34] | > 200 | ≤ 16 | – | – | – | – | –
O=C(Nc1cc(C(F)(F)F)cc(C(F)(F)F)c1)c1cc(O)cc(Cl)c1 [Compound 3, N-(3,5-bis(trifluoromethyl)phenyl)-3-chloro-5-hydroxybenzamide] | > 200 | – | – | – | essentially equipotent activity to IMD-0354 | – | –
Cc1cc(C)cc(NC(=O)c2cc(Cl)ccc2O)c1 [Compound 20] | > 200 | 1024 | 16 | 512 | – | – | –
O=C(Nc1ccc(F)cc1Br)c1cc(Cl)ccc1O [Compound 33] | > 200 | 128 | – | – | – | – | –
COc1ccc(O)c(C(=O)Nc2cc(C(F)(F)F)cc(C(F)(F)F)c2)c1 [Compound 11] | > 200 | 256 | – | – | – | – | –
O=C(Nc1cc(F)cc(F)c1)c1cc(I)ccc1O [Compound 50] | > 200 | 512 | 64 | 256 | – | – | –
Cc1cc(C)cc(NC(=O)c2cc(F)ccc2O)c1 [Compound 44, N-(3,5-dimethylphenyl)-5-fluoro-2-hydroxybenzamide] | > 200 | ≤ 16 | – | – | – | – | –
O=C(Nc1cc(C(F)(F)F)cc(C(F)(F)F)c1)c1cc(O)ccc1O [Compound 16, N-(3,5-bis(trifluoromethyl)phenyl)-2,5-dihydroxybenzamide] | > 200 | ≤ 16 | – | – | – | essentially inactive | –
O=C(Nc1ccc(Br)cc1)c1cc(Cl)ccc1O [Compound 37] | – | 2048 | 128 | 1024 | – | – | > 200
Cc1ccc(O)c(C(=O)Nc2cc(C(F)(F)F)cc(C(F)(F)F)c2)c1 [Compound 12] | > 200 | 512 | ≤ 16 | 256 | – | – | –
O=C(Nc1cc(Br)cc(Br)c1)c1ccc(C(F)(F)F)cc1O [Compound 56] | > 200 | 2048 | 256 | 1024 | – | – | –
Cc1cc(C)cc(NC(=O)c2ccc(C(F)(F)F)cc2O)c1 [Compound 57, N-(3,5-dimethylphenyl)-2-hydroxy-4-(trifluoromethyl)benzamide] | > 200 | 256 | – | – | – | – | –
